Results: US11957671B2, “Benzodioxane modulators of leukotriene A4 hydrolase (LTA4H) for prevention and treatment of aging-associated diseases” (Alkahest, Inc., priority 2021, dated 2024)

Assays:
LTA4H hydrolase activity = LTA4H hydrolase activity (Mus musculus (Mouse), UniProt P24527); test: Pharmacodynamic analysis of plasma LTB4 after a single dose; format: in vivo
Method: Whole blood was collected by cardiac puncture using heparin as an anti-coagulant. 160 μL of whole blood was collected in duplicate for each mouse and incubated for 15 minutes in 37° C./5% CO2. During this time a 0.1 mM calcimycin stock was made by diluting 10 mM calcimycin (Sigma C7522) formulated in DMSO into PBS. Control solution was made by diluting the same volume of DMSO in PBS. Both solutions were sonicated for 10 minutes in a 37° C. water bath. 40 μL of 0.1 mM calcimycin (stimulated) or control solution (unstimulated) was added to each well of whole blood and incubated at 37° C./5% CO2 for 30 minutes. Whole blood was spun for 10 minutes at 1000×g to separate out plasma. LTB4 levels were detected by running an ELISA on the collected stimulated and unstimulated plasma diluted 1:10 (Enzo Life Sciences, ADI-901-068). The ELISA plates were read on a BMG LABTECH CLARIOstar plate reader at 405 nm.

[1] = test system: aged wild type (WT; C57BL/6) mice; test: Iba-1 histology in hippocampus; format: in vivo, mouse; conditions: 4 weeks of dosing
Method: Brains were collected following saline perfusion and separated by mid-sagittal slice with one-half drop fixed in freshly prepared 4% PFA. PFA was changed to 30% sucrose 24-48 hours later. A second change to 30% sucrose occurred 24 hours later. Brain tissue was sectioned or lysed and analyzed for GFAP, AQP4, or IBA1 by standard histological methods. Images were acquired using a confocal microscope or Axioscan slide scanner.
Three independent cohorts of aged wild type (WT; C57BL/6) mice between twenty to twenty-two months of age (20-22 mo) were homogenized into two (2) groups by body weight, total distance travelled in the open field test, and average velocity in the open field test. Group 1 was administered vehicle control PO daily. Group 2 was administered 10 mg/kg of the LTA4H inhibitor Compound 1 PO daily. Both groups were dosed for either 10 days or 4 weeks daily. Behavioral assays were run during the last week of dosing and animals were sacrificed at the end of the study for histological and molecular assays.

[2] = test system: aged wild type (WT; C57BL/6) mice; test: Contextual Fear Conditioning (CFC); format: in vivo, mouse; conditions: 10 mg/kg PO daily, after 8 days of treatment
Method: Mice were brought into the testing room immediately before their trial to avoid exposure to sounds and scents from testing. Day 1: For training, mice were placed in the chambers, bright house light and fan on, for 2 minutes. Then an auditory cue (2000 Hz, 70 dB, conditioned stimulus (CS)) was presented for 30 seconds. A 2 second foot shock (0.6 mA; unconditioned stimulus (US)) was administered for the final 2 seconds of the CS. This procedure was repeated once, each after a 2-minute interval, and the mouse was removed from the chamber 30 seconds after the second shock. The pans, chamber walls and grid floors were cleaned with 70% ethanol between trials. Day 2: […] after the training, the mouse was returned to the same chamber in which the training occurred (memory for context), and freezing behavior was recorded for 3 min. The mouse was returned to its home cage. The pans, chamber walls, and grid floors were cleaned with 70% ethanol between trials. Day 3: 24 hours after context testing, the mouse was returned to the same chamber and freezing was recorded in a novel environment (altered context) and in response to the cue (memory for cue). […] The mouse was placed in the novel environment and freezing was recorded for 2 minutes. The auditory cue (2000 Hz, 70 dB, CS) was then presented for 30 seconds, and freezing was again recorded for 2 minutes. […]

Notch3R169C mice = test: CADASIL transgenic mouse model Notch3R169C, 4 months dosing (Example 24); format: in vivo; conditions: 1 mg/kg PO BID 4 months
Method: Notch3^R169C mice (5-month-old) were treated PO BID with either vehicle or Compound 1 (1 mg/kg) for 4 months and littermate WT controls were treated with vehicle for 4 months. Prior to sacrifice, syringes were prepped with 7.5 μL of 1000 U/mL heparin. To increase LTB4 plasma levels, whole blood was stimulated with calcimycin prior to generation of plasma. First, 100 μL of 10 mM calcimycin (Sigma #C7522) in DMSO was diluted into 10 mL of PBS and sonicated for 10 minutes at 37° C. In a 96 well polystyrene plate (Corning 354657), 160 μL of mouse whole blood was collected for each animal and incubated for 15 minutes in a 37° C./5% CO2 (Panasonic MCO-230AICUV-PA). Next, 40 μL of the 100 μM calcimycin working solution was added to each well and incubated again for 30 minutes at 37° C./5% CO2. After incubation, the plates were centrifuged for 10 minutes at 4° C. at 1500 rpm. Plasma was diluted 1:10 and analyzed for LTB4 using LTB4 ELISA Kit (Enzo Life Sciences, ADI-901-068) in duplicate following the included kit protocol. The final readings were collected on a BMG LABTECH CLARIOstar plate reader at 405 nm. Brain tissue was dissected for cortex. One third of the cortex was homogenized in RIPA buffer (EMD Millipore 20-188) using an Omni BeadRuptor 24. Lysates were centrifuged for 10 mins at 10,000 g at 4° C. to collect the supernatant. Protein concentration was determined by BCA (Thermo Fisher 23225) and then diluted in PBS to approximately 10 mg/ml. Samples were sent to Eve Technologies for analysis.

LTA4H hydrolase activity, sequence (P24527 whole entry): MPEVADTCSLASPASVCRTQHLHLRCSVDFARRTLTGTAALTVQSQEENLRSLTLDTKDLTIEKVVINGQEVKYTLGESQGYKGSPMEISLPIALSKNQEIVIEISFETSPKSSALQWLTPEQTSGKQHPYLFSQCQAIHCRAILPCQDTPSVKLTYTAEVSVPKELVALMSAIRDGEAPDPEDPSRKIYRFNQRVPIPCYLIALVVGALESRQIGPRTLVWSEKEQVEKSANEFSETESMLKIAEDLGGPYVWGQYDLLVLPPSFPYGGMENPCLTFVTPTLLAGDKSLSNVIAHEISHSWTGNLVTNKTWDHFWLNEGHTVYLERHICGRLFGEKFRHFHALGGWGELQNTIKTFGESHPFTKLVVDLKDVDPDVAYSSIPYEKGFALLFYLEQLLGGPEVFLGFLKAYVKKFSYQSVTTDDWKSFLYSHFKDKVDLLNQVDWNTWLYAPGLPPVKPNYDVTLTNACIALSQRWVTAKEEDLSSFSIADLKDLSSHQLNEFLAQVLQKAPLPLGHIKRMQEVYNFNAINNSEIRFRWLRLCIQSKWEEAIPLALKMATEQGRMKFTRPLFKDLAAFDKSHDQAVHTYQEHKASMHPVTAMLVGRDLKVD

Compound: O=C(O)C1CCN(Cc2ccc([C@H]3COc4ccccc4O3)cc2)CC1 [Example 1, 1-{4-[(2S)-2,3-dihydro-1,4-benzodioxin-2-yl]benzyl}piperidine-4-carboxylic acid]
- calcimycin stimulated plasma LTB4 levels (LTA4H hydrolase activity; single 1 mg/kg oral dose, multiple timepoints, C57BL/6 mice): reduction in the pharmacodynamic readout of calcimycin stimulated plasma LTB4 levels
- plasma LTB4 levels, dose response (LTA4H hydrolase activity; single dose 0.3, 0.1 or 0.03 mg/kg, 6 hours post dosing): dose response in the pharmacodynamic readout of plasma LTB4 levels
- Iba-1 percent thresholded area in the hippocampus [1]: reduction in Iba-1 percent thresholded area
- percent time freezing during testing phase of CFC [2]: increased freezing time
- IL-2 levels in plasma (Notch3R169C mice): significantly reduced
- IL-7 levels in brain cortex lysate (Notch3R169C mice): significantly reduced
- LTB4 levels in stimulated plasma (Notch3R169C mice): significantly reduced
- LTB4 levels in unstimulated plasma (Notch3R169C mice): no change in LTB4 levels detected between groups
